From publication PMC4522657, “Identification of a DYRK1A Inhibitor that Induces Degradation of the Target Kinase using Co-chaperone CDC37 fused with Luciferase nanoKAZ” (Scientific Reports, 2015)

Legend:
MNK2 = biological target: T1, MNK2 (Homo sapiens, UniProt Q9HBH9); assay: Kinase panel, CaNDY 1 µM; type: biochemical; details: CaNDY 1 µM relative to DMSO
T1 construct: purchased Carna Biosciences

CLK2 = biological target: T2, CLK2 (Homo sapiens, UniProt P49760); assay: Kinase panel, CaNDY 1 µM; type: biochemical
T2 construct: purchased Carna Biosciences

other 19 kinases = assay: Western blot of other kinases in HEK293 cells; type: cell-based; details: CaNDY 2 μM, 4 days
Protocol: To check selectivity of CaNDY for other kinases, we first examined protein expression of several kinases in HEK293 cells treated with CaNDY (2 μM) for 4 days. […] Third, protein expression of these kinases targeted by CaNDY (DYRK1A, DYRK1B, CLK1, and Haspin) was reassessed by Western blot analysis as performed in Fig. 7b.
Western blot analysis was performed using the antibodies described above. In brief, total cell lysates were separated by SDS-PAGE (5–20% gels; ATTO, Tokyo, Japan) under reducing conditions and then transferred to a PVDF membrane (PALL, SP, Brazil). Antibody reactions were performed with Can Get Signal® Immunoreaction Enhancer Solution (Toyobo). Peroxidase activities on the membrane were visualized with ECL Western Blotting Detection Reagents (GE Healthcare) or ImmunoStar® LD (Wako Pure Chemical Industries, Osaka, Japan), and a ChemiDoc^TM MP Imaging System (Bio-Rad, Hercules, CA, USA).

SYK = biological target: T3, SYK (Homo sapiens, UniProt P43405); assay: Kinase panel, CaNDY 1 µM; type: biochemical; details: CaNDY 1 µM relative to DMSO
T3 construct: purchased Carna Biosciences

PHKG2 = biological target: T4, PHKG2 (Homo sapiens, UniProt P15735); assay: Kinase panel, CaNDY 1 µM; type: biochemical; details: CaNDY 1 µM relative to DMSO
T4 construct: purchased Carna Biosciences

CaMK2β = biological target: T5, CaMK2β (Homo sapiens, UniProt Q13554); assay: Kinase panel, CaNDY 1 µM; type: biochemical; details: CaNDY 1 µM relative to DMSO
T5 construct: purchased Carna Biosciences

RSK4 = biological target: T6, RSK4 (Homo sapiens, UniProt Q9UK32); assay: Kinase panel, CaNDY 1 µM; type: biochemical; details: CaNDY 1 µM relative to DMSO
T6 construct: purchased Carna Biosciences

CaMK2γ = biological target: T7, CaMK2γ (Homo sapiens, UniProt Q13555); assay: Kinase panel, CaNDY 1 µM; type: biochemical; details: CaNDY 1 µM relative to DMSO
T7 construct: purchased Carna Biosciences

CaMK1δ = biological target: T8, CaMK1δ (Homo sapiens, UniProt Q8IU85); assay: Kinase panel, CaNDY 1 µM; type: biochemical; details: CaNDY 1 µM relative to DMSO
T8 construct: purchased Carna Biosciences

CDC37-nanoKAZ = assay: Luminescence activity of CDC37-nanoKAZ in total cell lysates; type: cell-based; details: counter-test, same concentrations as interaction assay
Protocol: The luminescence activity of the cell lysates was determined using a Centro LB 960 Microplate Luminometer (Berthold Technologies, Bad Wildbad, Germany). A reaction mixture containing bis-coelenterazine (final concentration of 0.1–1 μg/100 μL) in PBS containing 0.02% Tween20 and 20 mM EDTA was injected. The luminescence intensity was recorded at 0.1 s intervals for 10 s or 10 min. The maximum luminescence intensity (Imax), represented in relative luminescence units (rlu), was used in the study.
(§1) Targeting the DYRK1A/CDC37 complex
(a-d) Luminescence intensities of total cell lysates of cells treated with the indicated […]
Figure 4. Luminescence intensities at each concentration are shown as fold-changes relative to that at 0 nM. Points are means ± SD (n = 3).
(§2) (1 picture or pasted object on this page, not shown here)
Luminescence intensities of total cell lysates of cells treated with the indicated concentrations of CaNDY, as also used in Figure 5c. Luminescence intensities at each concentration are shown as fold-changes to that at 0 nM. Points are means ± SD (n = 3).

MAP2K7_Cascade = biological target: T9, MAP2K7_Cascade (Homo sapiens, UniProt O14733); assay: Kinase panel, CaNDY 1 µM; type: biochemical; details: CaNDY 1 µM relative to DMSO
T9 construct: purchased Carna Biosciences

LYNb = biological target: T10, LYNb (Homo sapiens, UniProt P07948); assay: Kinase panel, CaNDY 1 µM; type: biochemical; details: CaNDY 1 µM relative to DMSO
T10 construct: purchased Carna Biosciences

INSR = biological target: T11, INSR (Homo sapiens, UniProt P06213); assay: Kinase panel, CaNDY 1 µM; type: biochemical; details: CaNDY 1 µM relative to DMSO
T11 construct: purchased Carna Biosciences

MAP3K5_Cascade = biological target: T12, MAP3K5_Cascade (Homo sapiens, UniProt Q99683); assay: Kinase panel, CaNDY 1 µM; type: biochemical; details: CaNDY 1 µM relative to DMSO
T12 construct: purchased Carna Biosciences

PAK1 = biological target: T13, PAK1 (Homo sapiens, UniProt Q13153); assay: Kinase panel, CaNDY 1 µM; type: biochemical; details: CaNDY 1 µM relative to DMSO
T13 construct: purchased Carna Biosciences

EGFR(T790M) = biological target: T14, EGFR(T790M) (Homo sapiens, UniProt P00533, T790M); assay: Kinase panel, CaNDY 1 µM; type: biochemical; details: CaNDY 1 µM relative to DMSO
T14 construct: purchased Carna Biosciences

CaMK1α = biological target: T15, CaMK1α (Homo sapiens, UniProt Q14012); assay: Kinase panel, CaNDY 1 µM; type: biochemical; details: CaNDY 1 µM relative to DMSO
T15 construct: purchased Carna Biosciences

PKCβ1 = biological target: T16, PKCβ1 (Homo sapiens, UniProt P05771); assay: Kinase panel, CaNDY 1 µM; type: biochemical; details: CaNDY 1 µM relative to DMSO
T16 construct: purchased Carna Biosciences

KIT(V560G) = biological target: T17, KIT(V560G) (Homo sapiens, UniProt P10721, V560G); assay: Kinase panel, CaNDY 1 µM; type: biochemical; details: CaNDY 1 µM relative to DMSO
T17 construct: purchased Carna Biosciences

MAP2K2_Cascade = biological target: T18, MAP2K2_Cascade (Homo sapiens, UniProt P36507); assay: Kinase panel, CaNDY 1 µM; type: biochemical; details: CaNDY 1 µM relative to DMSO
T18 construct: purchased Carna Biosciences

mRNA coding for DYRK1A = assay: Reverse transcription and quantitative PCR in HEK293 cells; type: cell-based; details: CaNDY 2 µM, four days
Protocol: Total RNA of the cells was isolated using Sepasol-RNA I Super G (Nacalai Tesque), and then subjected to reverse transcription with Prime Script RTase (Takara Bio). Realtime PCR was performed with FastStart Universal SYBR Green Master (Rox) (Roche Diagnostics, Basel, Switzerland) using StepOnePlus Real-Time PCR System (Applied Biosystems, Life technologies). The nucleotide sequences of the primers are as follows: the forward primer for DYRK1A, 5′-[…]-3′; the reverse primer for DYRK1A, 5′-[…]-3′; the forward primer for GAPDH, 5′-[…]-3′; and the reverse primer for GAPDH, 5′-[…]-3′.
as §1
Figure S6. Expression of endogenous DYRK1A mRNA in HEK293 cells treated with
HEK293 cells were cultured in the presence of CaNDY (2 µM) for four days, and subjected to
reverse transcription followed by quantitative PCR analysis. Bar graphs show means ± SD (n =
as §2

MLK1_Cascade = biological target: T19, MLK1_Cascade (Homo sapiens, UniProt P80192); assay: Kinase panel, CaNDY 1 µM; type: biochemical; details: CaNDY 1 µM relative to DMSO
T19 construct: purchased Carna Biosciences

PYK2 = biological target: T20, PYK2 (Homo sapiens, UniProt Q14289); assay: Kinase panel, CaNDY 1 µM; type: biochemical; details: CaNDY 1 µM relative to DMSO
T20 construct: purchased Carna Biosciences

PKCβ2 = biological target: T21, PKCβ2 (Homo sapiens, UniProt P05771); assay: Kinase panel, CaNDY 1 µM; type: biochemical; details: CaNDY 1 µM relative to DMSO
T21 construct: purchased Carna Biosciences

PIK3CA/PIK3R1 = biological target: T22, PIK3CA/PIK3R1 (Homo sapiens, UniProt P42336); assay: Kinase panel, CaNDY 1 µM; type: biochemical; details: CaNDY 1 µM relative to DMSO
T22 construct: purchased Carna Biosciences

PAK6 = biological target: T23, PAK6 (Homo sapiens, UniProt Q9NQU5); assay: Kinase panel, CaNDY 1 µM; type: biochemical; details: CaNDY 1 µM relative to DMSO
T23 construct: purchased Carna Biosciences
T23 sequence (Q9NQU5 whole entry): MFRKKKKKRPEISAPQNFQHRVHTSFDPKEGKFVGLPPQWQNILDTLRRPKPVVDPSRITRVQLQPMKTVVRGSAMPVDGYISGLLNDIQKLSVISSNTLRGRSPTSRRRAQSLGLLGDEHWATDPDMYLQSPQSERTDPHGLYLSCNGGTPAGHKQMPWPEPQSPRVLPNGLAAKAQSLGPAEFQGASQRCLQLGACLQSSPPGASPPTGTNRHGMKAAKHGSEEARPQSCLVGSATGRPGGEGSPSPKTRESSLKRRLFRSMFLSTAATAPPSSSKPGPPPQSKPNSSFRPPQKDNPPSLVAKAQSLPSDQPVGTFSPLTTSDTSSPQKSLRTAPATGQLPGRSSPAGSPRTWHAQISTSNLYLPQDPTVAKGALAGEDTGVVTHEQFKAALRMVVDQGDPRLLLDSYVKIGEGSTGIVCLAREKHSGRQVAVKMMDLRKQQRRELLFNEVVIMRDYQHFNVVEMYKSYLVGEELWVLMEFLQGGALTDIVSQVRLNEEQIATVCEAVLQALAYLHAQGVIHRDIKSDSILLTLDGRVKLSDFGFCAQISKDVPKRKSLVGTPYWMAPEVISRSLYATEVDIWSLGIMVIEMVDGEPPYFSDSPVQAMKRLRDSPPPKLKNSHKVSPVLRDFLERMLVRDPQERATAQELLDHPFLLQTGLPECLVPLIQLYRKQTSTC

T2 sequence (P49760 whole entry): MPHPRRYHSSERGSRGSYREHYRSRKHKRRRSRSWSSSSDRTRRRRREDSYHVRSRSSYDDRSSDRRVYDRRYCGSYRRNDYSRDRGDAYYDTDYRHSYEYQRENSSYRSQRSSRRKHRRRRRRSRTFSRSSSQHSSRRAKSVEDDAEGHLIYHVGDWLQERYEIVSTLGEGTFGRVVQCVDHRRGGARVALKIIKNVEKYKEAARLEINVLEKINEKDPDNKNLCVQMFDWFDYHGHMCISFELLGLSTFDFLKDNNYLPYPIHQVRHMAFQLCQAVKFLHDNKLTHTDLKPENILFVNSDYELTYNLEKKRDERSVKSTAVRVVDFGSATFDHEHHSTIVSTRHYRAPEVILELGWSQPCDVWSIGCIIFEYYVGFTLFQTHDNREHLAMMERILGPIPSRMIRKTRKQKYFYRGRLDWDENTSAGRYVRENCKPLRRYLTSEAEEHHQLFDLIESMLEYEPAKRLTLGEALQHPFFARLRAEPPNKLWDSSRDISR
T22 sequence (P42336 whole entry): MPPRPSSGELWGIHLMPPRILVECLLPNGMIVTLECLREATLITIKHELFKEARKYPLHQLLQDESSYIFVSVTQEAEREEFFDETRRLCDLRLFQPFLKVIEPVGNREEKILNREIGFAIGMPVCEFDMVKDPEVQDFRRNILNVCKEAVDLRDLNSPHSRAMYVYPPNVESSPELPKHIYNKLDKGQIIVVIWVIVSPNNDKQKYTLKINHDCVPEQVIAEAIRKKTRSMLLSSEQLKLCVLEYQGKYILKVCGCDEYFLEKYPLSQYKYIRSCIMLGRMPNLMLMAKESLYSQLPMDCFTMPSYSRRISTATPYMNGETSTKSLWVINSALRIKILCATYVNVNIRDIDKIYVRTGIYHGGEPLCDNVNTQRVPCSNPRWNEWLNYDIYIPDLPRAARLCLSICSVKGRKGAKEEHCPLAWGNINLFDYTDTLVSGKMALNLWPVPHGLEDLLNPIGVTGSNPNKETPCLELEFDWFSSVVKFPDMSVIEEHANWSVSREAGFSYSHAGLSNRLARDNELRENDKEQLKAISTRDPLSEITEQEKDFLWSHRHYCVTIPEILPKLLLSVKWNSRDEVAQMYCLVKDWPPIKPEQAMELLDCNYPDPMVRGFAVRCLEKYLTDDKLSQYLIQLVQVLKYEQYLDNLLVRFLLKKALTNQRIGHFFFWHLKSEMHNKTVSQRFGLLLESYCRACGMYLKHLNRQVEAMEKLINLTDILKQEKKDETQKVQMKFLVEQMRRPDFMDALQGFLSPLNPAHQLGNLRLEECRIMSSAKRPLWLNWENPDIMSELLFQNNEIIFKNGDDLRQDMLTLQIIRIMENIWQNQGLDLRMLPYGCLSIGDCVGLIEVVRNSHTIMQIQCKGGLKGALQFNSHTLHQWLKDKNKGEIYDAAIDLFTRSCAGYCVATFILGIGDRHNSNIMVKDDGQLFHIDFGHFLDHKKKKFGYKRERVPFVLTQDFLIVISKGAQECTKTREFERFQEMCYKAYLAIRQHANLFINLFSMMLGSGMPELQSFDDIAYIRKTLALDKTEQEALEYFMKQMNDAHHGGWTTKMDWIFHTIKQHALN
T22 sequence (P27986 whole entry partner): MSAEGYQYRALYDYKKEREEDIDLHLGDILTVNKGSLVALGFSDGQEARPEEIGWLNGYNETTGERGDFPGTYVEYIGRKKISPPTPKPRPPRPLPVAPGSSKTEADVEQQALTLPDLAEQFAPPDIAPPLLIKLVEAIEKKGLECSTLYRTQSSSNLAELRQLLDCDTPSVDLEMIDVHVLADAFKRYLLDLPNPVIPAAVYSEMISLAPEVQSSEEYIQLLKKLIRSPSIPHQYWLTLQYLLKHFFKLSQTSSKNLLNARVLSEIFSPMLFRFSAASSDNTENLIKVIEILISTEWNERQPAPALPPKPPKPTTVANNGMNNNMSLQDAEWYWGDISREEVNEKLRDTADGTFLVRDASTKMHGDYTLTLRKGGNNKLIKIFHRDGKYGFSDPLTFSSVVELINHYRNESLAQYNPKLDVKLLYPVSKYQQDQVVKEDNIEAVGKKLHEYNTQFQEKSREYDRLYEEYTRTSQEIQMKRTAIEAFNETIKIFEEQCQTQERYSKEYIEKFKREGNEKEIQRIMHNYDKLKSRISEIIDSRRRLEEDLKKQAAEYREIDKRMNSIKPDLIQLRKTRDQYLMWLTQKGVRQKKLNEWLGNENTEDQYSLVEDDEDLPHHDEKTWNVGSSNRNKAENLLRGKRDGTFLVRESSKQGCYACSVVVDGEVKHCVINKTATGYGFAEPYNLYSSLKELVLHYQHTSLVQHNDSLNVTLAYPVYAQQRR
T9 sequence (O14733 whole entry): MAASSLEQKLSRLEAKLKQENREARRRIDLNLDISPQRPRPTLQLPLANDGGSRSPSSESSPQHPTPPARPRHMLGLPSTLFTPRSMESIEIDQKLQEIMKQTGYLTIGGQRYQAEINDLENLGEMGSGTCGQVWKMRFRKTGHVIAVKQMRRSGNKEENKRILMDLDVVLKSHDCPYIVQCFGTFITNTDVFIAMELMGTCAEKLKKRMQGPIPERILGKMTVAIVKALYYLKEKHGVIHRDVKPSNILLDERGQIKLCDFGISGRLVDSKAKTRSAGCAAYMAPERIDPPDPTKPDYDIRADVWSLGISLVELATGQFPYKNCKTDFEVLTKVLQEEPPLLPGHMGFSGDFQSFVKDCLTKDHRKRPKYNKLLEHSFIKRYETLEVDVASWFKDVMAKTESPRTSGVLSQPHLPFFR
T20 sequence (Q14289 whole entry): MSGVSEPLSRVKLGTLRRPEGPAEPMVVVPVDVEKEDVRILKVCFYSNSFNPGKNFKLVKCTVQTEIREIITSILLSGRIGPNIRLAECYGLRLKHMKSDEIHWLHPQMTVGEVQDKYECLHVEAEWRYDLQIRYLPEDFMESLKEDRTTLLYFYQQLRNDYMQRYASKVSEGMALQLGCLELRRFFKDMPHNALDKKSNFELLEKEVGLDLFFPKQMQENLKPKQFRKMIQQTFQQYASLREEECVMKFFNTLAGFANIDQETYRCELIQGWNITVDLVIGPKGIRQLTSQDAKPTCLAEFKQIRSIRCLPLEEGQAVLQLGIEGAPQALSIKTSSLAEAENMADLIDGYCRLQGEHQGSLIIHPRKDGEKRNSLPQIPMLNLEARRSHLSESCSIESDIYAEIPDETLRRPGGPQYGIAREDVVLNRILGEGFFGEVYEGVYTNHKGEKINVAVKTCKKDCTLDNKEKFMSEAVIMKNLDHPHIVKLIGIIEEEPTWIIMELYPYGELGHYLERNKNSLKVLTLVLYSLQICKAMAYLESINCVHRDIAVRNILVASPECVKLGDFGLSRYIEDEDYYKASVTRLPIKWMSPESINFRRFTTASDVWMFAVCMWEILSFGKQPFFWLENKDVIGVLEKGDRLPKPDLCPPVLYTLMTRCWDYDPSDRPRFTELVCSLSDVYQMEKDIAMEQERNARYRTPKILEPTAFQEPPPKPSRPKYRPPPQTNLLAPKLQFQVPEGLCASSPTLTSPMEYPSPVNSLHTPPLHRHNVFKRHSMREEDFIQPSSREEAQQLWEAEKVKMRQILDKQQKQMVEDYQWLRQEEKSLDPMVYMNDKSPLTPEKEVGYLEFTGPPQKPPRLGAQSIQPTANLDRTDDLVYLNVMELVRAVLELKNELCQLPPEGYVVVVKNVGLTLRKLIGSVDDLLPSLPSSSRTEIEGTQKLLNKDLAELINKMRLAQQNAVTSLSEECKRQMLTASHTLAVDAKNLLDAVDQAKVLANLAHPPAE
T21 sequence (P05771 1-673 isoform P05771-2): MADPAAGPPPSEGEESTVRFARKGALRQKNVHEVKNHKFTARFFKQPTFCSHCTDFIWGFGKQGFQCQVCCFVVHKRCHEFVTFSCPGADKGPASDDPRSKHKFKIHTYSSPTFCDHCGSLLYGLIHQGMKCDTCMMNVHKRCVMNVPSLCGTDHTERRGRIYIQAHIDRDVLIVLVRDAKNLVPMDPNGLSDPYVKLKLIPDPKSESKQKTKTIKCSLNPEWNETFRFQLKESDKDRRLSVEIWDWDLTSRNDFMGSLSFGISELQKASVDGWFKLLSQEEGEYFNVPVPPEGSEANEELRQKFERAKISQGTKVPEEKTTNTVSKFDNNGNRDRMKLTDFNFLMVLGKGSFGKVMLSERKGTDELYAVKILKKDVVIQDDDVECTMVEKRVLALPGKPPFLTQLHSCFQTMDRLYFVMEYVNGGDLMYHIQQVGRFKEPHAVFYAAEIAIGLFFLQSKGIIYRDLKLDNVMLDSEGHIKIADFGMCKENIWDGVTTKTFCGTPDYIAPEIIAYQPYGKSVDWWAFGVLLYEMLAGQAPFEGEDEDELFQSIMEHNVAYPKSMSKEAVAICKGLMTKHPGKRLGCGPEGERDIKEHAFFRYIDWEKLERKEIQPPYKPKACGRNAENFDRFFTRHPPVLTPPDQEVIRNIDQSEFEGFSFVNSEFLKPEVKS

[H]/N=C1/NC(=O)C(=Cc2ccc3c(c2)CCO3)S1 [CaNDY, (Z)-5-[(2,3-dihydrobenzofuran-5-yl)methylene]-2-iminothiazolidin-4-one]
remaining activity at 1 µM (MNK2): 90.3%
inhibition at 1 µM (CLK2; 1 μM CaNDY, read-out: percentage inhibition): > 90%
%Activity (CLK2; CaNDY 1 µM relative to DMSO): 9.0%
protein expression of other kinases (other 19 kinases): did not decrease the other 19 kinases
%Activity (SYK): 93.7%
remaining activity at 1 µM (PHKG2): 88%
remaining activity at 1 µM (CaMK2β): 98.2%
%Activity (RSK4): 94.6%
remaining activity at 1 µM (CaMK2γ): 101%
remaining activity at 1 µM (CaMK1δ): 103%
inhibition of luminescence activity of CDC37-nanoKAZ (CDC37-nanoKAZ): did not inhibit
%Activity (MAP2K7_Cascade): 101.7%
remaining activity at 1 µM (LYNb): 98%
remaining activity at 1 µM (INSR): 103%
remaining activity at 1 µM (MAP3K5_Cascade): 103%
remaining activity at 1 µM (PAK1): 98.6%
%Activity (EGFR(T790M)): 107.5%
remaining activity at 1 µM (CaMK1α): 100%
remaining activity at 1 µM (PKCβ1): 83.8%
remaining activity at 1 µM (KIT(V560G)): 101%
remaining activity at 1 µM (MAP2K2_Cascade): 94.7%
expression of mRNA coding for DYRK1A (mRNA coding for DYRK1A): slightly decreased
remaining activity at 1 µM (MLK1_Cascade): 99.9%
remaining activity at 1 µM (PYK2): 98.7%
remaining activity at 1 µM (PKCβ2): 88.2%
remaining activity at 1 µM (PIK3CA/PIK3R1): 38.5%
remaining activity at 1 µM (PAK6): 101%
